Consider seven molecules from ChEMBL document CHEMBL4007384, “Synthesis and optimization of furano[3,2-d]pyrimidines as selective spleen tyrosine kinase (Syk) inhibitors” (Bioorg Med Chem Lett, 2016).

The nature of data set [1]: Solubility in pH 5 FeSSIF at 0.2 mg sonicated for 10 mins followed by incubation for 2 days by HPLC analysis. The data set is classed as physicochemical.
A short description of data set [2]: Unbound clearance in human microsomes. Format: ADME, Microsome.
A short description of data set [3]: Unbound clearance in rat microsomes. Format: ADME, Microsome.
Data set [4] concerns the target T1, Dual specificity protein kinase TTK (Homo sapiens, UniProt P33981).
T1 sequence (P33981 whole entry): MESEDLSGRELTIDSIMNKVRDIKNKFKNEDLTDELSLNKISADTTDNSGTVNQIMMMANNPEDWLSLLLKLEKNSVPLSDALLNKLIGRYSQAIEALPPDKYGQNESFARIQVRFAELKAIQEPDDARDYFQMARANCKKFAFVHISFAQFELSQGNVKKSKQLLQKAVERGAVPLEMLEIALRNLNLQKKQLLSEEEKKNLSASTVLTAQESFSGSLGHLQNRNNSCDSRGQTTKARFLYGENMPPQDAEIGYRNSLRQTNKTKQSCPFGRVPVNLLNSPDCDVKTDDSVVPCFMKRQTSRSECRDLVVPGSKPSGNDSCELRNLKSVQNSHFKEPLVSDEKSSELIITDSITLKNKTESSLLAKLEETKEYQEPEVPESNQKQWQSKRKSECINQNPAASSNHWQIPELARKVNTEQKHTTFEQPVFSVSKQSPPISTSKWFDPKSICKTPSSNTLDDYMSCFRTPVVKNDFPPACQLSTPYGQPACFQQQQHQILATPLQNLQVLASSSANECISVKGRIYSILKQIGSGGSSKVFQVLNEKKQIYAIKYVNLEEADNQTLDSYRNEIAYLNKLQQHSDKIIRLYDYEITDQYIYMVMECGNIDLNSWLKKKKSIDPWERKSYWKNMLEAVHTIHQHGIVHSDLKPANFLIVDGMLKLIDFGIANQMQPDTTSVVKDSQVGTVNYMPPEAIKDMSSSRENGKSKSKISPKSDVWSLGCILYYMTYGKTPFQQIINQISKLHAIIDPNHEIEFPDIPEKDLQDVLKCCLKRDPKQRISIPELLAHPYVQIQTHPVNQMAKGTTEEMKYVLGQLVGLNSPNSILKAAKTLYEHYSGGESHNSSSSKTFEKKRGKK
In words: Inhibition of TTK (unknown origin) after 60 mins by TR-FRET assay.

Data set [5] addresses Serine/threonine-protein kinase B-raf (Homo sapiens, UniProt P15056). As to the kind of experiment: Inhibition of BRAF (unknown origin) after 60 mins by TR-FRET assay. In general terms: Time-resolved FRET reads energy transfer from a long-lived donor to a nearby acceptor.
The nature of data set [6]: Inhibition of CDK11 (unknown origin) after 60 mins by TR-FRET assay. The arrangement: species or system Homo sapiens.
Data set [7] has as its target T2, Serine/threonine-protein kinase Nek2 (Homo sapiens, UniProt P51955).
T2 sequence (P51955 whole entry): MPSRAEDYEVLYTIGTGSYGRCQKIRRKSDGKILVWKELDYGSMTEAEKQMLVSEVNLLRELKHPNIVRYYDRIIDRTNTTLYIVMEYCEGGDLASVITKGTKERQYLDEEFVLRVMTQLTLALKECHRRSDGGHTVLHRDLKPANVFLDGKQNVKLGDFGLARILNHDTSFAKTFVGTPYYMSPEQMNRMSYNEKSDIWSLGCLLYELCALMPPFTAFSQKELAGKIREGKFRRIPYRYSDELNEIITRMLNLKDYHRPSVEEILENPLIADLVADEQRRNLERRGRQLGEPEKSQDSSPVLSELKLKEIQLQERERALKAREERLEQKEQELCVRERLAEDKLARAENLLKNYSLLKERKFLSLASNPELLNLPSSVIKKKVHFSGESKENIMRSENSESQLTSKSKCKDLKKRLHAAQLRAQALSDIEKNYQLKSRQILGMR
In words: Inhibition of NEK2 (unknown origin) after 60 mins by TR-FRET assay.

Data set [8] has as its target cGMP-dependent protein kinase 1 (Homo sapiens, UniProt Q13976). As to the kind of experiment: Inhibition of PKG1A (unknown origin) after 60 mins by TR-FRET assay.
Data set [9] concerns the target T3, Tyrosine-protein kinase SYK (Homo sapiens, UniProt P43405).
Description: Inhibition of Syk (unknown origin) after 60 mins by TR-FRET assay
The target of data set [10] is T3, Tyrosine-protein kinase SYK. The source holds these as a separate data set.
Description: Inhibition of C-terminal His-tagged Syk catalytic domain (356 to 635 residues) (unknown origin) using biotin-TYR1 as substrate after 60 mins by TR-FRET assay
For data set [11], the target named is Rho-associated protein kinase 2 (Homo sapiens, UniProt O75116). As to the kind of experiment: Inhibition of ROCK2 (unknown origin) after 60 mins by TR-FRET assay.
Chain of Rho-associated protein kinase 2 (O75116 whole entry): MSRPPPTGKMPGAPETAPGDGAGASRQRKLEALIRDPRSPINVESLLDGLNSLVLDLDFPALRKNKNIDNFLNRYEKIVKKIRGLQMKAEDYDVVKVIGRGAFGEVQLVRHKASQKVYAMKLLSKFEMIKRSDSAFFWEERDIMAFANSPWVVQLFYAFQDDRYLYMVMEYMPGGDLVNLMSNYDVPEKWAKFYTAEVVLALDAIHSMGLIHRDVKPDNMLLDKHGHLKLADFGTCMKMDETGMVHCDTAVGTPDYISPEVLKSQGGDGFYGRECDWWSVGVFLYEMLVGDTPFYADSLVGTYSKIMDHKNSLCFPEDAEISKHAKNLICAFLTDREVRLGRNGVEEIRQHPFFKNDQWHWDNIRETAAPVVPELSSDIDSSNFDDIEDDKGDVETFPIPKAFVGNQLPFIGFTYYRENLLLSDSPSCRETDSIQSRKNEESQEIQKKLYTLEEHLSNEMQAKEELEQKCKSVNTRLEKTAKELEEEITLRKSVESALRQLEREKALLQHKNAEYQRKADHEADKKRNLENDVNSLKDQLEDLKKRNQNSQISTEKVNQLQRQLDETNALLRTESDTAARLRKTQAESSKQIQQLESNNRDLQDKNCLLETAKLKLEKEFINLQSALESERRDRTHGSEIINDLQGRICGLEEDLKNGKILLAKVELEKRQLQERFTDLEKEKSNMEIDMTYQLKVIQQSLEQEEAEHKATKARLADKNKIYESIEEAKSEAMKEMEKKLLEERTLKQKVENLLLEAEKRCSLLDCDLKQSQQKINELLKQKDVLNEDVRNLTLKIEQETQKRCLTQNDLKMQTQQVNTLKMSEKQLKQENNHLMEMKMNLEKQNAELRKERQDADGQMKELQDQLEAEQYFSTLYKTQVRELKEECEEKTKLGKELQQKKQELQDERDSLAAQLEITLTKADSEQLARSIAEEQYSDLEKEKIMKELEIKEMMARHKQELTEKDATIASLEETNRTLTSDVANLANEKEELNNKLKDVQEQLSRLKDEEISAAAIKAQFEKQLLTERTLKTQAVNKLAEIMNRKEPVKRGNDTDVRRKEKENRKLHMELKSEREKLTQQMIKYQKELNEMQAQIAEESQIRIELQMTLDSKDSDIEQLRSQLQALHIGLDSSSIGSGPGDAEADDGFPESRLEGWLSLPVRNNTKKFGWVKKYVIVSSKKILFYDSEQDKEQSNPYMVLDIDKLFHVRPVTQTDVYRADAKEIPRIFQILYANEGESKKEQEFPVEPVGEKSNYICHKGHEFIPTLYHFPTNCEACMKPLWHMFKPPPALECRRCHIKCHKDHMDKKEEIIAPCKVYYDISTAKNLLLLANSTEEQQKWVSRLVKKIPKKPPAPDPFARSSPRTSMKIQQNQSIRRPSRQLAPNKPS
For data set [12], the target named is T4, Serine/threonine-protein kinase TAO2 (Homo sapiens, UniProt Q9UL54).
T4 sequence (Q9UL54 whole entry): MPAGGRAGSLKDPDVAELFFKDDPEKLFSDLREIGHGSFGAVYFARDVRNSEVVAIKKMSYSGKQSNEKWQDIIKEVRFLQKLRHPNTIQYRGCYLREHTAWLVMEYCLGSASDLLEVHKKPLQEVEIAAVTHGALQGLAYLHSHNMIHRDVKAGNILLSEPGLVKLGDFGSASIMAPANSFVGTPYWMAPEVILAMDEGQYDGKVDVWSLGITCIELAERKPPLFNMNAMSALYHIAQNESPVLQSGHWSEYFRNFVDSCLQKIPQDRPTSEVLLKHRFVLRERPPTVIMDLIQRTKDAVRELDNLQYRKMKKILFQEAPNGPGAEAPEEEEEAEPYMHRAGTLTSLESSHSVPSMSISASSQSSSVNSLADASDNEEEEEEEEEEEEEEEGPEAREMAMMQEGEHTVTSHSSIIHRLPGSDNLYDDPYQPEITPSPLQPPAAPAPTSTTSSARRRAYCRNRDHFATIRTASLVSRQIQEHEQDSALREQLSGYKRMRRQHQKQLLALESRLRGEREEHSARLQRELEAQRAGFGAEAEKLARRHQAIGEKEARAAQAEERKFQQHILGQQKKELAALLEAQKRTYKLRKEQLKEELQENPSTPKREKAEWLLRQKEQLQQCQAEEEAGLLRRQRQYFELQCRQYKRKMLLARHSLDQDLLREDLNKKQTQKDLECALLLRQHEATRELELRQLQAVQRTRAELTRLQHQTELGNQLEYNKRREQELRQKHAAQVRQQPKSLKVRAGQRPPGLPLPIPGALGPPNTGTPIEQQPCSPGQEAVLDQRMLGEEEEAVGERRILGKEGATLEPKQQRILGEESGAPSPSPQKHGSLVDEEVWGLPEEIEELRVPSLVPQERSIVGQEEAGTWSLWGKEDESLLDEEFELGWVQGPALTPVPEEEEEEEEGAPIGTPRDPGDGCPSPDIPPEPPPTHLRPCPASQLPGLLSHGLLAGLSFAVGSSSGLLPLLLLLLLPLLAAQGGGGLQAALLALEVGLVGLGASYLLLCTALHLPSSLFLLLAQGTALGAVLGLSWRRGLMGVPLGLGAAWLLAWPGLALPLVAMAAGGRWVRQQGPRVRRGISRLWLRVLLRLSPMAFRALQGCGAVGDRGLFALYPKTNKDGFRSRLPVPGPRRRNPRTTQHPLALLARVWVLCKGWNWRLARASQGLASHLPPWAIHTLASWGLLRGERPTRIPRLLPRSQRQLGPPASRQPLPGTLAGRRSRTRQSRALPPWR
In words: Inhibition of TAOK2 (unknown origin) after 60 mins by TR-FRET assay.

Chain of cGMP-dependent protein kinase 1 (Q13976 whole entry): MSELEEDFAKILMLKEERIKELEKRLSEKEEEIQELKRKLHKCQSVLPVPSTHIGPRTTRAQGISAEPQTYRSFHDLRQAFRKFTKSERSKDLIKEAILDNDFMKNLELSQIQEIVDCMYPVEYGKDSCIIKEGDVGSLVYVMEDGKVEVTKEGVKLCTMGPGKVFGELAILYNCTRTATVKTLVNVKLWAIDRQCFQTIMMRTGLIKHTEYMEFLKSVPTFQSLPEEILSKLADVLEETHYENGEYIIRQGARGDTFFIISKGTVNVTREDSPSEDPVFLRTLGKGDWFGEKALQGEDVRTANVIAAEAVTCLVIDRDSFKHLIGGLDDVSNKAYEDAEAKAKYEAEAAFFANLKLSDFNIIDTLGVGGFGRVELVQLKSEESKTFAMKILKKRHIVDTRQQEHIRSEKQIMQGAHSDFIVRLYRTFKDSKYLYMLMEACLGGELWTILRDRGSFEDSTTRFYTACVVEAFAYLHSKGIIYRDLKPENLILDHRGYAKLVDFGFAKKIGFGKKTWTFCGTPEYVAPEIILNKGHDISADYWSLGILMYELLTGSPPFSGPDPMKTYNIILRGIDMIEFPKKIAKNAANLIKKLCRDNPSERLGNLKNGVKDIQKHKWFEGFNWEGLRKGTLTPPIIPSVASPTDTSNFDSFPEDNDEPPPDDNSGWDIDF
Chain of Serine/threonine-protein kinase B-raf (P15056 whole entry): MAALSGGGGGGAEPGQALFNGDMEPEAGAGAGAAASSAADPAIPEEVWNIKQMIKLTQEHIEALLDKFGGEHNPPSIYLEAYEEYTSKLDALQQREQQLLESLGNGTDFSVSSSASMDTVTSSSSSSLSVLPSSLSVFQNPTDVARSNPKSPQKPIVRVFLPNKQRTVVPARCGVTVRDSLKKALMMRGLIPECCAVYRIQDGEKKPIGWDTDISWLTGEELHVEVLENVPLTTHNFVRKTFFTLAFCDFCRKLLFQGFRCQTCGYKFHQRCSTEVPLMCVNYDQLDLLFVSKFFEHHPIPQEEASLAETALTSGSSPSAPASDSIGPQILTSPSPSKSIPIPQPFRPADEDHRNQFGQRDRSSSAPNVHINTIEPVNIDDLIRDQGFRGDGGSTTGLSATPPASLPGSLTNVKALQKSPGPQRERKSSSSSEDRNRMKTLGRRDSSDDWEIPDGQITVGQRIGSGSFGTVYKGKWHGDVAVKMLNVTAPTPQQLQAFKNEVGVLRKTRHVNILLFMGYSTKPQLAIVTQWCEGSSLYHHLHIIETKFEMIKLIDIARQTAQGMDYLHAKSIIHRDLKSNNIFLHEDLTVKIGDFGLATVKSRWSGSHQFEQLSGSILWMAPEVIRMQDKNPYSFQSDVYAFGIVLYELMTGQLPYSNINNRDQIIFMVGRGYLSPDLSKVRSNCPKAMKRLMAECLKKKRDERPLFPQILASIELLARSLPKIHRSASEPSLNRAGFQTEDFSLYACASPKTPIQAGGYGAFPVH

One may read the solubility as the concentration that dissolves in the medium under given conditions. A lower solubility goes with little dissolved substance. In the case of `CCNc1nc(Nc2ccc3c(c2)NC(=O)COC3(C)C)nc2ccoc12`, in [1], the solubility at 48 h is above 67 µM. Moreover, the CL free in data set [2] came out at 91.7 mL/min/kg; in [3] it was 318 mL/min/kg.

`CC1(C)CCC(=O)Nc2cc(Nc3nc(NCC(F)(F)F)c4occc4n3)ccc21`: in data set [3], the CL free turned out to be 880 mL/min/kg.

On to `CCCNc1nc(Nc2ccc3c(c2)NC(=O)COC3(C)C)nc2ccoc12`, for which the solubility at 48 h in [1] is above 200 µM. For the same molecule, the values for the CL free in [2] and in data set [3] were 307 mL/min/kg and 373 mL/min/kg, respectively.

For orientation: IC50 means the concentration needed to halve the response being measured. A high value points to weaker potency. As for `CCCNC(=O)c1ccc(Nc2nc(NCC(F)(F)F)c3cc[nH]c3n2)cc1`, the 50% inhibitory concentration (IC50) in [4] is 991 nM; in data set [5] it was above 10000 nM; in data set [6], above 10000 nM; in [7], above 10000 nM; in [8], above 10000 nM; in data set [9], 8 nM. Moreover, the results for the IC50 in data set [10], in [11] and in [12] were 17 nM, 248 nM and 529 nM, respectively.

On to `CC1(C)Oc2ccc(Nc3nc(NCC(F)(F)F)c4occc4n3)cc2NC1=O`, for which, in data set [3], the CL free came to 177 mL/min/kg.

Regarding `COC(=O)N[C@H]1CC(C)(C)c2ccc(Nc3nc(NC4CC4)c4occc4n3)cc2NC1=O`, the CL free in data set [2] came out at 118 mL/min/kg; in data set [3], 332 mL/min/kg.

`O=C1CCc2ccc(Nc3nc(NCC(F)(F)F)c4occc4n3)cc2N1` returned a CL free in data set [3] of 365 mL/min/kg.
